From ChEMBL document CHEMBL1201862, “PubChem BioAssay data set” (2004)
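96-well plates; 48 h exposure; 5 concentrations. Endpoints by linear interpolation between flanking doses. Not reached: highest tested concentration assigned. At the GI50, growth is halved.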 Calls of active or inactive are those of the source. Cut-off read from the data, not from the text of the source: active = GI50 up to about 1.1 µM and inactive = higher.

Assays:
Assay in all cases: growth of human tumour cells (NCI), 48 h
UACC-62 = tested on: UACC-62
NCI-H522 = tested on: NCI-H522
PC-3 = tested on: PC-3
HOP-92 = tested on: HOP-92
OVCAR-3 = tested on: OVCAR-3
SK-MEL-2 = tested on: SK-MEL-2
SF-539 = tested on: SF-539
HL-60 = tested on: HL-60
CAKI-1 = tested on: CAKI-1
EKVX = tested on: EKVX
SR = tested on: SR
MDA-MB-231 = tested on: MDA-MB-231
COLO 205 = tested on: COLO 205
K562 = tested on: K562
UACC-257 = tested on: UACC-257
NCI-H23 = tested on: NCI-H23
M14 = tested on: M14
OVCAR-8 = tested on: OVCAR-8
SW-620 = tested on: SW-620
SNB-75 = tested on: SNB-75
NCI-H460 = tested on: NCI-H460
U-251 = tested on: U-251
OVCAR-4 = tested on: OVCAR-4
SF-295 = tested on: SF-295
LOX IMVI = tested on: LOX IMVI
SN12C = tested on: SN12C
HOP-62 = tested on: HOP-62
MCF7 = tested on: MCF7
ACHN = tested on: ACHN
DU-145 = tested on: DU-145
SK-MEL-28 = tested on: SK-MEL-28
TK-10 = tested on: TK-10
SK-OV-3 = tested on: SK-OV-3
786-0 = tested on: 786-0
A549 = tested on: A549
OVCAR-5 = tested on: OVCAR-5
CCRF-CEM = tested on: CCRF-CEM
UO-31 = tested on: UO-31
HCT-15 = tested on: HCT-15
NCI/ADR-RES = tested on: NCI/ADR-RES
KM12 = tested on: KM12
HCT-116 = tested on: HCT-116
RXF 393 = tested on: RXF 393
T47D = tested on: T47D
IGROV-1 = tested on: IGROV-1
SK-MEL-5 = tested on: SK-MEL-5
MDA-MB-435 = tested on: MDA-MB-435
HT-29 = tested on: HT-29
Malme-3M = tested on: Malme-3M
NCI-H226 = tested on: NCI-H226
SF-268 = tested on: SF-268
BT-549 = tested on: BT-549
Hs-578T = tested on: Hs-578T
SNB-19 = tested on: SNB-19
MOLT-4 = tested on: MOLT-4
HCC 2998 = tested on: HCC 2998
MDA-N = tested on: MDA-N
A498 = tested on: A498
RPMI-8226 = tested on: RPMI-8226

COc1cc2c(cc1OCCCOc1cc3c(cc1OC)C(=O)N1CCC[C@H]1CN3)N=C[C@@H]1CCCN1C2=O
GI50 (UACC-62): 0.1 µM (active)
GI50 (NCI-H522): < 12.7 nM (active)
GI50 (PC-3): 0.279 µM (active)
GI50 (HOP-92): 0.145 µM (active)
GI50 (OVCAR-3): 92.9 nM (active)
GI50 (SK-MEL-2): 0.0977 µM (active)
GI50 (SF-539): 0.024 µM (active)
GI50 (HL-60): 29.1 nM (active)
GI50 (CAKI-1): 0.324 µM (active)
GI50 (EKVX): 1.89 µM (inactive)
GI50 (SR): < 10 nM (active)
GI50 (MDA-MB-231): 0.145 µM (active)
GI50 (COLO 205): 0.108 µM (active)
GI50 (K562): 48.2 nM (active)
GI50 (UACC-257): 0.206 µM (active)
GI50 (NCI-H23): 0.158 µM (active)
GI50 (M14): 0.0753 µM (active)
GI50 (OVCAR-8): 0.232 µM (active)
GI50 (SW-620): 0.127 µM (active)
GI50 (SNB-75): 0.179 µM (active)
GI50 (NCI-H460): 0.228 µM (active)
GI50 (U-251): 0.0189 µM (active)
GI50 (OVCAR-4): 0.67 µM (active)
GI50 (SF-295): 0.123 µM (active)
GI50 (LOX IMVI): 0.0371 µM (active)
GI50 (SN12C): 0.189 µM (active)
GI50 (HOP-62): 0.0317 µM (active)
GI50 (MCF7): < 0.0391 µM (active)
GI50 (ACHN): 0.0986 µM (active)
GI50 (DU-145): 0.357 µM (active)
GI50 (SK-MEL-28): 0.202 µM (active)
GI50 (TK-10): 0.163 µM (active)
GI50 (SK-OV-3): 0.54 µM (active)
GI50 (786-0): 0.0656 µM (active)
GI50 (A549): 0.7 µM (active)
GI50 (OVCAR-5): 0.182 µM (active)
GI50 (CCRF-CEM): < 10 nM (active)
GI50 (UO-31): 2.17 µM (inactive)
GI50 (HCT-15): 1.86 µM
GI50 (NCI/ADR-RES): 3.11 µM (inactive)
GI50 (KM12): 0.0893 µM (active)
GI50 (HCT-116): 0.124 µM (active)
GI50 (RXF 393): 0.0497 µM (active)
GI50 (T47D): 0.0309 µM (active)
GI50 (IGROV-1): 0.201 µM (active)
GI50 (SK-MEL-5): 0.126 µM (active)
GI50 (MDA-MB-435): 0.117 µM (active)
GI50 (HT-29): 0.244 µM (active)
GI50 (Malme-3M): 0.115 µM (active)
GI50 (NCI-H226): 0.0782 µM (active)
GI50 (SF-268): 0.0234 µM (active)
GI50 (BT-549): 0.0802 µM (active)
GI50 (Hs-578T): 267 nM (active)
GI50 (SNB-19): 0.0869 µM (active)
GI50 (MOLT-4): 0.011 µM (active)

NC(N)=NC(P(=O)(O)O)P(=O)(O)O
GI50 (UACC-62): > 100 µM (inactive)
GI50 (NCI-H522): > 100000 nM (inactive)
GI50 (PC-3): > 100 µM (inactive)
GI50 (OVCAR-3): > 100000 nM (inactive)
GI50 (SF-539): > 100 µM (inactive)
GI50 (CAKI-1): > 100 µM (inactive)
GI50 (EKVX): > 100 µM (inactive)
GI50 (MDA-MB-231): > 100 µM (inactive)
GI50 (COLO 205): > 100 µM (inactive)
GI50 (UACC-257): > 100 µM (inactive)
GI50 (NCI-H23): > 100 µM (inactive)
GI50 (M14): > 100 µM (inactive)
GI50 (NCI-H460): > 100 µM (inactive)
GI50 (SF-295): > 100 µM (inactive)
GI50 (LOX IMVI): > 100 µM (inactive)
GI50 (HOP-62): > 100 µM (inactive)
GI50 (MCF7): > 100 µM (inactive)
GI50 (ACHN): > 100 µM (inactive)
GI50 (DU-145): > 100 µM (inactive)
GI50 (TK-10): > 100 µM (inactive)
GI50 (SK-OV-3): > 100 µM (inactive)
GI50 (786-0): > 100 µM (inactive)
GI50 (A549): > 100 µM (inactive)
GI50 (OVCAR-5): > 100 µM (inactive)
GI50 (UO-31): > 100 µM (inactive)
GI50 (HCT-15): > 100 µM
GI50 (NCI/ADR-RES): > 100 µM (inactive)
GI50 (KM12): > 100 µM (inactive)
GI50 (HCC 2998): > 100 µM (inactive)
GI50 (HCT-116): > 100 µM (inactive)
GI50 (RXF 393): > 100 µM (inactive)
GI50 (IGROV-1): > 100 µM (inactive)
GI50 (SK-MEL-5): > 100 µM (inactive)
GI50 (Malme-3M): > 100 µM (inactive)
GI50 (NCI-H226): > 100 µM (inactive)
GI50 (SF-268): > 100 µM (inactive)
GI50 (BT-549): > 100 µM (inactive)
GI50 (Hs-578T): 254 nM (active)
GI50 (SNB-19): > 100 µM (inactive)
GI50 (MDA-N): > 100 µM (inactive)

CN(C)C(=S)S [SODIUM DIMETHYLCARBAMODITHIOATE]
GI50 (UACC-62): > 100 µM (inactive)
GI50 (NCI-H522): 194 nM (active)
GI50 (PC-3): 3.37 µM (inactive)
GI50 (HOP-92): > 100 µM (inactive)
GI50 (OVCAR-3): 305 nM (active)
GI50 (SK-MEL-2): 18.1 µM (inactive)
GI50 (SF-539): > 100 µM (inactive)
GI50 (HL-60): 1330 nM (inactive)
GI50 (CAKI-1): 63.1 µM (inactive)
GI50 (EKVX): > 94.6 µM (inactive)
GI50 (A498): > 100 µM (inactive)
GI50 (MDA-MB-231): 43.6 µM (inactive)
GI50 (COLO 205): 27.9 µM (inactive)
GI50 (K562): 2440 nM (inactive)
GI50 (UACC-257): > 100 µM (inactive)
GI50 (NCI-H23): > 50.8 µM (inactive)
GI50 (M14): > 100 µM (inactive)
GI50 (OVCAR-8): > 52.5 µM (inactive)
GI50 (SW-620): > 59.7 µM (inactive)
GI50 (RPMI-8226): 17.5 µM (inactive)
GI50 (SNB-75): > 85.5 µM (inactive)
GI50 (NCI-H460): 4.68 µM (inactive)
GI50 (U-251): 98.6 µM (inactive)
GI50 (OVCAR-4): 36.9 µM (inactive)
GI50 (SF-295): > 80.2 µM (inactive)
GI50 (LOX IMVI): 34.4 µM (inactive)
GI50 (SN12C): 80 µM (inactive)
GI50 (MCF7): > 100 µM (inactive)
GI50 (ACHN): > 71 µM (inactive)
GI50 (DU-145): > 95.7 µM (inactive)
GI50 (SK-MEL-28): > 64.4 µM (inactive)
GI50 (TK-10): > 100 µM (inactive)
GI50 (SK-OV-3): > 100 µM (inactive)
GI50 (786-0): > 70 µM (inactive)
GI50 (A549): > 100 µM (inactive)
GI50 (OVCAR-5): > 100 µM (inactive)
GI50 (UO-31): 56.4 µM (inactive)
GI50 (HCT-15): > 76 µM
GI50 (NCI/ADR-RES): > 100 µM (inactive)
GI50 (KM12): > 25.2 µM (inactive)
GI50 (HCC 2998): 20.1 µM (inactive)
GI50 (HCT-116): 25.5 µM (inactive)
GI50 (RXF 393): 83.9 µM (inactive)
GI50 (T47D): > 100 µM (inactive)
GI50 (IGROV-1): 2.23 µM (inactive)
GI50 (SK-MEL-5): 4.14 µM (inactive)
GI50 (MDA-MB-435): > 78 µM (inactive)
GI50 (HT-29): 11.5 µM (inactive)
GI50 (Malme-3M): > 43.8 µM (inactive)
GI50 (NCI-H226): > 100 µM (inactive)
GI50 (SF-268): > 100 µM (inactive)
GI50 (BT-549): > 100 µM (inactive)
GI50 (Hs-578T): > 100000 nM (inactive)
GI50 (SNB-19): > 100 µM (inactive)
GI50 (MOLT-4): 35.4 µM (inactive)
